From patent US12569479B2 (priority 2016, dated 2026)
Read-outs that look alike come from different tables or passages of the source.

Assays:
[1] = test system: adult patients with moderate to severe major depressive disorder (MDD); experiment: Phase 2 randomized, double-blind, active-controlled trial of DM/BU in major depressive disorder; assay type: in vivo, human; conditions: twice daily for 6 weeks; DM/BU 45 mg/105 mg or bupropion 105 mg
Method: The changes from baseline in the Montgomery-Asberg Depression Rating Scale (MADRS) total score over the 6-week treatment period were calculated at each time point and averaged.

[2] = human, in vivo
[3] = test system: daily smokers using 10 or more cigarettes per day (nicotine addiction); experiment: Phase 2 randomized, double-blind, active-controlled study of DM/BU for smoking cessation treatment; assay type: in vivo, human
From the text: Enrolled subjects were daily smokers using 10 or more cigarettes per day.
The primary outcome measure was the change in smoking intensity, measured using the number of cigarettes smoked per day, assessed via daily smoking diaries.

[4] = test system: dextromethorphan metabolism (dextromethorphan/dextrorphan metabolic ratio); conditions: human, in vivo, 3 h
Method: (§1) Plasma concentrations of dextromethorphan and dextrorphan 3 hours after dosing were used, with a dextromethorphan/dextrorphan ratio of 0.3 or greater indicating a poor metabolizer phenotype.

[5] = test system: metabolism of dextromethorphan to dextrorphan in human liver microsomes; experiment: Inhibition of the metabolism of dextromethorphan in human liver microsomes; conditions: human, human liver microsomes, pH 7.4, probe dextromethorphan (5 μM)
Method: (§2) The ability of various antidepressant compounds to inhibit the metabolism of dextromethorphan was examined using human liver microsomes.
(§3) After optimal incubation at 37° C., the reactions were terminated by addition of methanol containing internal standard for analytical quantification. The quenched samples were incubated at 4° C. for 10 minutes and centrifuged at 4° C. for 10 minutes. The supernatant was removed, and the metabolite of dextromethorphan (dextrorphan) was analyzed by LC-MS/MS.

[6] = test system: patients with treatment resistant depression (TRD); experiment: Phase 3 randomized, double-blind, active controlled trial of DM/BU in treatment resistant depression
From the text: Inclusion criteria for the open-label period included males or females 18-65 years of age, a history of inadequate response to 1 or 2 prior antidepressant treatments, established by the Antidepressant Treatment Response Questionaire (ATRQ), and a Hamilton Depression Rating Scale (HAMD-17) total score of ≥18. Inclusion criteria for the double-blind period included inadequate response to 2 or 3 prior antidepressant treatments, including open-label period failure. Exclusion criteria included a history of electroconvulsive therapy, vagus nerve stimulation, transcranial magnetic stimulation, or any experimental central nervous system treatment during the current episode or in the past 6 months, schizophrenia, bipolar disorder, obsessive compulsive disorder, psychiatric symptoms secondary to any other general medical condition.
The change in depressive symptoms over time was measured using the Montgomery-Asberg Depression Rating Scale (MADRS) and the Quick Inventory of Depressive Symptomatology-Self-Rated (QIDS-SR-16). The primary endpoint was the change from baseline in the MADRS after 6 weeks of treatment. The key secondary endpoints were the change from baseline in the MADRS after 1 week of treatment, after 2 weeks of treatment, the average change over entire 6-week double-blind treatment period, and the Sheehan Disability Scale (SDS). Other pre-specified secondary efficacy variables included the Cognitive subscale of the Massachusetts General Hospital Cognitive and Physical Functioning Questionnaire (CPFQ), and the Hamilton Anxiety Scale (HAM-A).

[7] = test system: patients with agitation associated with Alzheimer's disease; experiment: Phase 2/3 randomized, double-blind, controlled trial of DM/BU in agitation associated with Alzheimer's disease
Method: (§4) A Phase 2/3 randomized, double-blind, controlled, multicenter, U.S. clinical trial was conducted to evaluate the efficacy and safety of DM/BU in patients with agitation associated with Alzheimer's disease. […] Subsequently, patients were randomized in a 1:1 ratio to receive DM/BU or placebo. […] The minimum score on the CMAI is 29, corresponding to the total absence of symptoms, with higher scores corresponding to greater agitation. The primary endpoint of the study was the change from baseline in the CMAI total score at Week 5. P-values were calculated based on least square mean estimates.

[8] = test system: patients with agitation associated with Alzheimer's disease; conditions: both, human, in vivo, 5 weeks
Method: as §4

[9] = test system: metabolism of dextromethorphan in human liver microsomes; experiment: Inhibition of the metabolism of dextromethorphan in human liver microsomes; conditions: read-out: Mean IC50; human liver microsomes 0.5 mg/mL, dextromethorphan 5 μM, 37° C.; dextrorphan formation
Method: as §2, §3

[10] = test system: metabolism of dextromethorphan in human liver microsomes
Method: as §2, §3

[11] = Pharmacokinetic study of dextromethorphan (DM) alone or DM in combination with bupropion, plasma concentrations by LC-MS/MS; conditions: for Cmax: Dextromethorphan Cmax; for average plasma concentration: Day 8, after bupropion administration
[12] = test system: dextromethorphan metabolism (dextromethorphan/dextrorphan metabolic ratio); experiment: Phenotypic determination of dextromethorphan metabolizer status (dextromethorphan/dextrorphan metabolic ratio); conditions: Day 8; 3 hours after dosing
Method: as §1

[13] = test system: metabolism of dextromethorphan to dextrorphan in human liver microsomes; experiment: in vitro; conditions: pH 7.4
Method: as §2, §3

[14] = DM/BU 45 mg/105 mg or bupropion 150 mg twice daily
[15] = Open-label Period, bupropion 150 mg twice daily

With CC(NC(C)(C)C)C(=O)c1cccc(Cl)c1.Cl (racemic) [Bupropion] the “Change in MADRS Total Score at week 6” value [1] was −12.1, the “Change in MADRS Total Score over 6-week period (averaged)” value [1] was −8.8 and the “reduction in mean dextrorphan AUC0-12” value [2] was ~55%. The “reduction in mean dextrorphan Cmax” value [2] was ~78%, the “proportion of smokers with more than 50% reduction in expired carbon monoxide levels” value ([3]; 3-week period) was 30.4% and the “average reduction in cigarettes smoked per day” value ([3]; over the 3-week period, twice daily) was 6.79 cigarettes per day. For the same compound, the “subjects converted to poor metabolizer status” value [4] was 100%, the IC50 [5] was 9.1 µM and the “mean reduction in MADRS averaged over the entire 6-week treatment period” value [6, 14] was 6.7. For the same compound, the “mean reduction in QIDS-SR-16 averaged over the entire 6-week treatment period” value [6, 14] was 2.3, the “Anxiety, number of subjects” value ([6]; Double-blind Period) was 0 subjects and the “Any TEAE, % of subjects” value ([6]; Double-blind Period) was “(39.1%)”. For the same compound, the “Any TEAE, number of subjects” value ([6]; Double-blind Period) was 61 subjects, the “Constipation, % of subjects” value ([6]; Double-blind Period) was “(1.9%)” and the “Constipation, number of subjects” value ([6]; Double-blind Period) was 3 subjects. The “Dizziness, number of subjects” value ([6]; Double-blind Period) was 0 subjects, the “Dry mouth, % of subjects” value ([6]; Double-blind Period) was “(1.9%)” and the “Dry mouth, number of subjects” value ([6]; Double-blind Period) was 3 subjects. The “Headache, % of subjects” value ([6]; Double-blind Period) was “(4.5%)”, the “Headache, number of subjects” value ([6]; Double-blind Period) was 7 subjects and the “Insomnia, % of subjects” value ([6]; Double-blind Period) was “(3.2%)”. For the same compound, the “Insomnia, number of subjects” value ([6]; Double-blind Period) was 5 subjects, the “Irritability, % of subjects” value ([6]; Double-blind Period) was “(1.3%)” and the “Irritability, number of subjects” value ([6]; Double-blind Period) was 2 subjects. For the same compound, the “Nausea, % of subjects” value ([6]; Double-blind Period) was “(1.9%)”, the “Nausea, number of subjects” value ([6]; Double-blind Period) was 3 subjects and the “rate of discontinuation due to adverse events” value ([6]; Double-blind Period) was 1.9%. The “Anxiety, % of subjects” value ([6]; Open-label Period) was “(3.5%)”, the “Anxiety, number of subjects” value ([6]; Open-label Period) was 11 subjects and the “Constipation, % of subjects” value ([6]; Open-label Period) was “(4.2%)”. For the same compound, the “Constipation, number of subjects” value ([6]; Open-label Period) was 13 subjects, the “Dizziness, % of subjects” value ([6]; Open-label Period) was “(2.9%)” and the “Dizziness, number of subjects” value ([6]; Open-label Period) was 9 subjects. The “Dry mouth, % of subjects” value ([6]; Open-label Period) was “(4.2%)”, the “Dry mouth, number of subjects” value ([6]; Open-label Period) was 13 subjects and the “Headache, % of subjects” value ([6]; Open-label Period) was “(4.5%)”. The “Headache, number of subjects” value ([6]; Open-label Period) was 14 subjects, the “Insomnia, % of subjects” value ([6]; Open-label Period) was “(6.1%)” and the “Insomnia, number of subjects” value ([6]; Open-label Period) was 19 subjects. For the same compound, the “Irritability, % of subjects” value ([6]; Open-label Period) was “(3.2%)”, the “Irritability, number of subjects” value ([6]; Open-label Period) was 10 subjects and the “Nausea, % of subjects” value ([6]; Open-label Period) was “(7.1%)”. For the same compound, the “Nausea, number of subjects” value ([6]; Open-label Period) was 22 subjects, the “Any TEAE, % of subjects” value [6, 15] was “(43.5)” and the “Any TEAE, number of subjects” value [6, 15] was 135 subjects. The “mean MADRS reduction” value ([6]; Week 1) was 3.6, the “mean MADRS reduction” value ([6]; Week 2) was 6.1 and the “rate of remission from depression (QIDS-SR-16 ≤5)” value ([6]; Week 6) was 8.2%. For the same compound, the “mean MADRS reduction” value ([6]; Week 6 (primary endpoint)) was 9.4, the “Deaths, % of subjects” value ([7]; Safety Population) was “(2.0%” and the “Deaths, number of subjects” value ([7]; Safety Population) was 1 subjects. The “Deaths, number of subjects” value ([7]; Safety Population, listed as bupropion) was “one”, the “mean reduction from baseline in the CMAI total score” value ([7]; Week 5 (primary endpoint)) was 10.0 points and the “Diarrhea, number of subjects” value [8] was 3 subjects. For the same compound, the “Discontinuation due to AEs, number of subjects” value [8] was 1 subjects, the “Dizziness, number of subjects” value [8] was 5 subjects and the “Falls, % of subjects” value [8] was “(14.3%)”. The “Falls, number of subjects” value [8] was 7 subjects, the “Fatigue, % of subjects” value [8] was “(10.2%)” and the “Fatigue, number of subjects” value [8] was 5 subjects. For the same compound, the “Headache, % of subjects” value [8] was “(6.1%)”, the “Headache, number of subjects” value [8] was 3 subjects and the “Insomnia, % of subjects” value [8] was “(6.1%)”. For the same compound, the “Insomnia, number of subjects” value [8] was 3 subjects, the “Serious AEs, number of subjects” value [8] was 4 subjects and the “Somnolence, number of subjects” value [8] was 2 subjects. For the same compound, the “Subjects with any TEAE, % of subjects” value [8] was “(61.2%)” and the “Subjects with any TEAE, number of subjects” value [8] was 30 subjects.
Work on C[C@@H]1NC(C)(C)CO[C@@]1(O)c1cccc(Cl)c1 [(25,3S)-Hydroxybupropion] yielded an IC50 [9] of 12.5 µM.
Work on C[C@H]1NC(C)(C)CO[C@]1(O)c1cccc(Cl)c1 [(R,R)-Hydroxybupropion] yielded an IC50 [9] of 8.2 µM.
Work on CNCC[C@H](Oc1cccc2ccccc12)c1cccs1 [(S)-Duloxetine] yielded an IC50 [10] of 4.1 µM.
With CN(C)CCCC1(c2ccc(F)cc2)OCc2cc(C#N)ccc21 (centres unmarked) [Citalopram] the IC50 [5] was 14.1 µM.
CN(C)CC(c1ccc(O)cc1)C1(O)CCCCC1 (centres unmarked) [Desvenlafaxine] gave an IC50 [5] of 97.3 µM.
In the case of COc1ccc2c(c1)[C@]13CCCC[C@@H]1[C@H](C2)N(C)CC3 [Dextromethorphan], the “Mean Trough Dextromethorphan Plasma Concentrations” value ([11]; Day 1) is reported as 0.7 ng/mL, the “Mean Trough Dextromethorphan Plasma Concentrations” value ([11]; Day 5) is reported as 1.2 ng/mL and the “Mean Trough Dextromethorphan Plasma Concentrations” value ([11]; Day 6) is reported as 1.3 ng/mL. For the same compound, the “Mean Trough Dextromethorphan Plasma Concentrations” value ([11]; Day 7) was 1.2 ng/mL, the “Dextromethorphan Cavg” value ([11]; Day 8) was 2.3 ng/mL and the “Dextromethorphan Cmin” value ([11]; Day 8) was 1.1 ng/mL. For the same compound, the “Mean Trough Dextromethorphan Plasma Concentrations” value ([11]; Day 8) was 1.1 ng/mL, the “mean elimination half-life (T1/2 el) of dextromethorphan” value ([11]; Day 8) was 6.6 h and the AUC(0-inf) ([11]; human, in vivo, 60 mg) was 41.2 ng·h/mL. The Tmax ([11]; human, in vivo, 60 mg) was 2.3 h, the concentration at 0 h ([11]; human, in vivo, 60 mg) was 1.2 ng/mL and the concentration at 1 h ([11]; human, in vivo, 60 mg) was 2.4 ng/mL. It also gave a concentration at 2 h ([11]; human, in vivo, 60 mg) of 3.6 ng/mL, a concentration at 3 h ([11]; human, in vivo, 60 mg) of 3.6 ng/mL and a concentration at 4 h ([11]; human, in vivo, 60 mg) of 3.3 ng/mL. It also gave a concentration at 6 h ([11]; human, in vivo, 60 mg) of 2.5 ng/mL, a concentration at 8 h ([11]; human, in vivo, 60 mg) of 1.9 ng/mL and a concentration at 12 h ([11]; human, in vivo, 60 mg) of 1.1 ng/mL. The concentration at 24 h ([11]; human, in vivo, 60 mg) was 0.4 ng/mL, the concentration at 36 h ([11]; human, in vivo, 60 mg) was 0.1 ng/mL and the AUC(0-t) ([11]; human, in vivo, 60 mg, Dextromethorphan AUC0-12, Day 1) was 20.1 ng·h/mL. For the same compound, the AUC(0-t) ([11]; human, in vivo, 60 mg, Dextromethorphan AUC0-12, Day 8) was 28.1 ng·h/mL, the AUC(0-t) ([11]; human, in vivo, 60 mg, Dextromethorphan AUC0-24, Day 8) was 37.1 ng·h/mL and the Cmax ([11]; human, in vivo, 60 mg, Day 1) was 3 ng/mL. For the same compound, the Cmax ([11]; human, in vivo, 60 mg, Day 8) was 3.8 ng/mL and the “mean plasma dextromethorphan/dextrorphan metabolic ratio” value [12] was “remained unchanged”.
For CC(NC(C)(C)C)C(O)c1cccc(Cl)c1 (centres unmarked) [Erythrohydroxybupropion], the average plasma concentration [11] was ≥ 20 ng/mL and the IC50 [9] was 1.4 µM.
Compound CN(C)CCC[C@@]1(c2ccc(F)cc2)OCc2cc(C#N)ccc21 [Escitalopram] has an IC50 [5] of 17.1 µM.
COCCCC/C(=N\OCCN)c1ccc(C(F)(F)F)cc1 [Fluvoxamine] showed an IC50 [5] of 6.5 µM.
In the case of C[C@H](NC(C)(C)C)[C@@H](O)c1cccc(Cl)c1 [Threohydroxybupropion], the average plasma concentration [11] is reported as ≥ 100 ng/mL and the IC50 [9] is reported as 3.9 µM.
COc1ccc(C(CN(C)C)C2(O)CCCCC2)cc1 (centres unmarked) [Venlafaxine] gave an IC50 [13] of 27.7 µM.
In the case of C[C@H]1NC(C)(C)CO[C@]1(O)c1cccc(Cl)c1 [hydroxybupropion], the average plasma concentration [11] is reported as ≥ 200 ng/mL.
